Experiment: xn = mol fraction of the nth substance listed

O=CN1CCOCC1 + Cc1ccc(C)cc1
viscosity [mPa·s]
Conditions	298.15 K	303.15 K	313.15 K	323.15 K
101 kPa, x2 = 0.1	5.473	4.774	3.78	3.059
101 kPa, x2 = 0.2	3.996	3.557	2.865	2.378
101 kPa, x2 = 0.3	3.008	2.716	2.243	1.893
101 kPa, x2 = 0.4	2.311	2.107	1.782	1.528
101 kPa, x2 = 0.5	1.837	1.7	1.443	1.263
101 kPa, x2 = 0.6	1.38	1.295	1.098	0.944
101 kPa, x2 = 0.7	1.099	1.018	0.8763	0.7736
101 kPa, x2 = 0.8	0.8844	0.824	0.7219	0.6357
101 kPa, x2 = 0.9	0.731	0.6863	0.6047	0.5387
101.3 kPa, x2 = 0.02757	6.848	–	–	–
101.3 kPa, x2 = 0.05782	6.12	–	–	–
101.3 kPa, x2 = 0.09608	5.439	–	–	–
101.3 kPa, x2 = 0.1653	4.378	–	–	–
101.3 kPa, x2 = 0.2769	3.14	–	–	–
101.3 kPa, x2 = 0.355	2.505	–	–	–
101.3 kPa, x2 = 0.4708	1.842	–	–	–
101.3 kPa, x2 = 0.5471	1.542	–	–	–
101.3 kPa, x2 = 0.6377	1.231	–	–	–
101.3 kPa, x2 = 0.6871	1.093	–	–	–
101.3 kPa, x2 = 0.7745	0.899	–	–	–
101.3 kPa, x2 = 0.8554	0.772	–	–	–
101.3 kPa, x2 = 0.9319	0.668	–	–	–

CC(C)NC(C)C + CCCCOCCO
viscosity [mPa·s], 100 kPa
Conditions	298.15 K	303.15 K	308.15 K
x2 = 0.0501	0.42	0.4	0.38
x2 = 0.1005	0.47	0.44	0.42
x2 = 0.15	0.54	0.5	0.47
x2 = 0.2024	0.63	0.58	0.54
x2 = 0.2999	0.8	0.73	0.68
x2 = 0.3999	1.06	0.95	0.89
x2 = 0.5001	1.38	1.23	1.14
x2 = 0.6002	1.77	1.56	1.42
x2 = 0.6997	2.14	1.85	1.68
x2 = 0.7998	2.48	2.14	1.95
x2 = 0.8999	2.74	2.39	2.14
x2 = 0.9499	2.82	2.47	2.21

CCC(=O)c1ccccc1 + CCOC(C)=O
viscosity [mPa·s], 101 kPa
Conditions	x1 = 0.0764	x1 = 0.1569	x1 = 0.2419	x1 = 0.3317	x1 = 0.4268	x1 = 0.5276	x1 = 0.6347	x1 = 0.7486	x1 = 0.8701
303.15 K	0.4784	0.5399	0.6088	0.6897	0.7853	0.8977	1.034	1.199	1.398
308.15 K	0.4618	0.519	0.5844	0.6608	0.7493	0.8602	0.9953	1.153	1.333
313.15 K	0.4426	0.4991	0.5564	0.6277	0.7199	0.8175	0.9454	1.095	1.261

O=CN1CCOCC1 + Clc1ccccc1
viscosity [mPa·s], 101 kPa
Conditions	x1 = 0.1017	x1 = 0.203	x1 = 0.3039	x1 = 0.4045	x1 = 0.5046	x1 = 0.6044	x1 = 0.7039	x1 = 0.8029	x1 = 0.9017
303.15 K	0.844	1.034	1.274	1.58	1.966	2.471	3.125	3.981	5.096
308.15 K	0.801	0.973	1.186	1.455	1.793	2.233	2.8	3.529	4.465
313.15 K	0.753	0.911	1.105	1.351	1.656	2.05	2.56	3.21	4.04

CC(C)NC(C)C + CC(C)CO
viscosity [mPa·s], 100 kPa
Conditions	298.15 K	303.15 K	308.15 K
x1 = 0.0559	2.916	2.467	2.005
x1 = 0.1015	2.616	2.232	1.833
x1 = 0.1519	2.295	1.98	1.662
x1 = 0.2069	1.995	1.738	1.459
x1 = 0.2516	1.765	1.549	1.319
x1 = 0.3055	1.507	1.346	1.155
x1 = 0.3944	1.194	1.067	0.931
x1 = 0.4988	0.926	0.837	0.743
x1 = 0.6017	0.73	0.674	0.607
x1 = 0.7131	0.586	0.553	0.509
x1 = 0.8018	0.504	0.485	0.448
x1 = 0.865	0.455	0.441	0.409
x1 = 0.9062	0.433	0.419	0.395
x1 = 0.9423	0.409	0.396	0.379

From the CheMixHub viscosity set
